Results: publication PMC11681865, “Oligomerization of protein arginine methyltransferase 1 and its functional impact on substrate arginine methylation” (The Journal of Biological Chemistry, 2024)
“Also recorded” adds a separate entry of the source.

Experiments:
R4 peptide = experiment: MALDI-MS methylation activity of PRMT1-E153Q and PRMT1-WT on R4 peptide; assay type: biochemical; conditions: 2 μM PRMT1, 10 μM R4, 50 μM SAM, 30 min, room temperature
Description: (§1) It is known that PRMT1 can mono- and di-methylate an arginine residue on a protein or peptide substrate sequence, which results in monomethylarginine and asymmetric dimethylarginines product states. We attempted to examine whether oligomerization promotes PRMT1 ability to generate multiple methylation states in substrates. We used a synthetic peptide with four possible arginine methylation sites for PRMT1: the R4 peptide (Ac-[…]). R4 peptide, SAM, and different concentrations of PRMT1 were mixed in an aqueous buffer to allow methylation to occur, and then the mixture was subjected to MALDI-MS analysis. […] Our rationale is that, even though PRMT1-E153Q is catalytically dead, it can still interact with PRMT1-WT, resulting in hybrid higher oligomers. Therefore, presenting varying amounts of PRMT1-E153Q to a fixed concentration of PRMT1-WT would be another ideal way to test how oligomerization impacts on PRMT1 activity. […] Next, the concentration of PRMT1-WT was kept constant at 0.5 μM, but the concentration of PRMT1-E153Q was changed (Fig. 4). […] We further tested the methylation of the H4 peptide by 0.1 μM PRMT1-WT with the presence of PRMT1-E153Q.
The reaction buffer contained 50 mM Hepes pH 8.0, 10 mM NaCl, 0.5 mM EDTA, and 0.5 mM DTT. The reaction consisted of PRMT1 at various concentrations, 10 μM of R4 (Peptide Sequence: Ac-[…]), and 50 μM of SAM. […]

PRMT1 [1] = biological target: T1, PRMT1 (Homo sapiens, UniProt Q99873); experiment: Dynamic light scattering of PRMT1 oligomers; assay type: physicochemical; conditions: no denaturant, 50 mM Hepes pH 8, 10 mM NaCl, 0.5 mM EDTA, 0.5 mM DTT, 25 °C, average of three runs of 25 scans
T1 construct: human PRMT1 protein (amino acid residue 11–353); His6; made in house
T1 sequence (Q99873 11-353 isoform Q99873-3): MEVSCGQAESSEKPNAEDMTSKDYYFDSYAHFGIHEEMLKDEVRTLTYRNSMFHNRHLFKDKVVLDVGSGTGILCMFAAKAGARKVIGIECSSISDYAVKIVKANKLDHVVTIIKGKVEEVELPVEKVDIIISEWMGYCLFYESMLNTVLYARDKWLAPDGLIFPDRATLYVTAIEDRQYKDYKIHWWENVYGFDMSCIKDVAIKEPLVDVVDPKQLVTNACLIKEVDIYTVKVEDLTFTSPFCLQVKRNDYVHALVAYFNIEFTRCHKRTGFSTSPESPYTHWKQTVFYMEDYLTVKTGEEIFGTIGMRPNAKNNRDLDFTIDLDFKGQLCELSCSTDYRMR
Description: Dynamic light scattering (DLS) uses a laser to measure the particle size distribution ([26]). The DLS can give information regarding the heterogeneity of protein in a sample ([27]). In the past, DLS was used to study microbial and viral structure ([28]). Nowadays, DLS is a popular method for studying nanoparticles, liposomes, and exosomes ([29], [30], [31], [32]). Researchers have also used DLS to study the protein folding of bovine serum albumin ([33]). Therefore, we envisage that the DLS can be utilized to analyze the size changes of PRMT1 oligomeric compositions in an aqueous solution. We expect to see an increase in size with increasing protein concentrations. The prepared PRMT1 protein at varied concentrations was allowed to incubate in the aqueous buffer for equilibrium on ice for 10 min. The protein solution was filtered with 0.2-micron filter to remove any big interfering particles. The protein size was analyzed using a Malvern Zetasizer instrument. We took an average of three runs with about 25 scans each time to evaluate the data. […] Guanidine hydrochloride is a popular protein denaturant ([34]). […] As a negative control, we incubated PRMT1 in the presence of 6 M guanidine hydrochloride to disrupt oligomer formation. […] A literature reported that guanidine thiocyanate is a stronger denaturant than guanidine hydrochloride ([35]).
Figure 2 Oligomerization of PRMT1 detection by dynamic light scattering. Various concentrations of PRMT1 were incubated on ice for 10 min, then filtered by 0.2-micron syringe filter and collected data from the DLS. The top line with black circle indicates PRMT1 without denaturant. The open triangle and hexagon lines indicated PRMT1 oligomeric structure disrupted by 6 M guanidine hydrochloride and 5 M guanidine thiocyanate, respectively.
Indicated concentrations of PRMT1 were incubated for 10 min on ice with buffer (50 mM Hepes pH 8, 10 mM NaCl, 0.5 mM EDTA, 0.5 mM DTT) and filtered through the 0.22 μm syringe filter. For the experiment to disrupt the oligomer formation, 6 M of guanidine hydrochloride or 5 M of guanidine thiocyanate was added to the reaction. The samples were injected into the 1 ml disposable cuvette and measured by Zetasizer Nano ZS (Malvern Instruments) at 25 °C. Three measurements of 25 scans each were collected to average. The data was analyzed by the Malvern Zetasizer software v7.10.

PRMT1 [2] = biological target: T1, PRMT1; experiment: MALDI-MS methylation states of R4 peptide by PRMT1-WT; assay type: biochemical; conditions: 0.5 μM vs 1 μM PRMT1, 10 μM R4, 50 μM SAM, 30 min
Description: as §1
Figure 3 Determine the methylation state of R4 peptide by PRMT1 high-order oligomers. The reaction consisted of 0 μM (A), 0.5 μM (B), 1 μM (C) of PRMT1, 10 μM R4 peptide, and 50 μM SAM for 30 min at room temperature. […]

PRMT1-WT = biological target: T2, PRMT1-WT (Homo sapiens, UniProt Q99873); experiment: Radiometric P81 filter-binding assay, PRMT1-WT concentration dependence; assay type: biochemical; conditions: 50 μM peptide, 2 μM [3H]-SAM and 48 μM SAM, 30 min, room temperature, pH 8.0
T2 construct: His-MBP (N, cleaved yes); made in house; host or cells: Escherichia coli BL21 (DE3) RIPL
T2 sequence (Q99873 11-353 isoform Q99873-3): as above
Description: We used the phosphocellulose P81 filter paper–binding assay to measure the catalytic activity of PRMT1 at different concentrations on individual peptides. Each reaction mixture was composed of PRMT1-WT at varied concentrations, at fixed concentrations of SAM and peptide. The reaction mixture was quenched with isopropanol, transferred to the P81 filter paper, and washed with sodium bicarbonate buffer (pH 9). […] The measured count-per-minute (CPM) values correlated directly with the amounts of methylated peptide products. In a typical enzymatic catalysis, the product should be formed linearly as a function of enzyme concentration.
Various concentrations of PRMT1-WT were incubated with radioactive 2 μM [3H]-SAM and 48 μM SAM and 50 μM of indicated peptides for 30 min. The reaction was quenched with 100% isopropanol.
The reaction buffer consisted of 50 mM Hepes pH 8.0, 10 mM NaCl, 0.5 mM EDTA, and 0.5 mM DTT. The reaction was incubated at room temperature for 30 min after being initiated with ^3H-SAM SAM. An equal amount of 100% isopropanol to the total reaction volume was used to quench the reaction. The reaction liquid was transferred onto the phosphocellulose P81 filter paper (1.1 cm × 2 cm, Protein Chemistry & Metabolism Unit at St Vincent's Institute of Medical Research). The P81 filter papers containing the samples were left at room temperature for 30 min to airdry. […]

[3] = tested on: PRMT1-WT / PRMT1-E153Q oligomers; experiment: MALDI-MS methylation states of R4 peptide by PRMT1-WT with added PRMT1-E153Q; assay type: biochemical, human; conditions: 0.5 μM PRMT1-WT, 0-2 μM PRMT1-E153Q
Description: as §1
Figure 4 Determine the methylation state of R4 peptide by PRMT1 and PRMT1-E153Q oligomers formation. PRMT1 and PRMT1-E153Q was incubated on ice for 20 min before the addition of 10 μM R4 and 50 μM of SAM. […]

| Substance | number of methylation states in R4 substrate by PRMT1-WT (R4 peptide) | Z-average vs PRMT1 concentration (PRMT1 [1]) | methylation states observed (PRMT1 [2]) | PRMT1 enzymatic activity (CPM) vs PRMT1 concentration (PRMT1-WT) | R4 methylation states vs PRMT1-E153Q concentration [3] |
| --- | --- | --- | --- | --- | --- |
| protein arginine methyltransferase 1 [PRMT1] | up to six methylation states in the R4 substrate | increased gradually with the increase in PRMT1 concentration |  |  |  |
| Ac-GGRGGFGGRGGKGGRGGFGGRGGFG [R4 peptide, synthetic peptide with four possible arginine methylation sites for PRMT1] |  |  | multimethylated by PRMT1, from monomethylation to penta-methylation and hexa-methylation; also recorded: the hexa-methylation peak was only observed at 1 μM | increase as higher-order oligomeric structures were formed | the amounts of all of the different methylation states increased as more and more PRMT1-E153Q protein was added; also recorded: hexa- and hepta-methylated R4 peptides appeared when PRMT1-E153Q was increased up at 2 μM |
